Measured values taken from article PMC9501280, “Anti-Inflammatory Activity of Soluble Epoxide Hydrolase Inhibitors Based on Selenoureas Bearing an Adamantane Moiety” (International Journal of Molecular Sciences, 2022).

Experiments:
E. coli PQ37 = assay: SOS chromotest; assay type: cell-based
Description: For the final safety check of selenoureas, the SOS chromotest was carried out. […] The results are presented as the mean value of induction factor I (c) ± SEM based on the results of three independent experiments, each of which included three replicates (Table 5).
The SOS chromotest was carried out according to the standard procedure, with recommended additions. The E. coli PQ37 strain was provided by P. Quillardet (Paris, France). The test compounds were dissolved in dimethyl sulfoxide (DMSO) (also used as a negative control) and added to the bacterial medium in the required concentrations; the concentration of the injected solutions was 1% by volume.

[1] = system: C57bl/6j peritoneal macrophages; assay: MTT cytotoxicity on peritoneal macrophages; assay type: cell-based, mice; settings: Mus musculus, Peritoneal macrophage, read-out: EC50 ± SEM, C57bl/6j
Description: (§1) Peritoneal macrophages (PM) were isolated from the peritoneal exudate of 30 male C57bl/6j mice. To accumulate PM, 1 mL of 3% peptone solution was injected intraperitoneally. After 3 days, the mice were euthanized by cervical dislocation. Cells of peritoneal exudate were obtained by aseptic washing of the abdominal cavity with 5 mL of sterile Hanks’s solution (+4–6 °C) without calcium and magnesium ions. The total number and viability of cells were assessed in a Goryaev counting chamber (Russia) with a 0.4% trypan blue staining (Sigma-Aldrich, St. Louis, MO, USA). The cell concentration was adjusted to 1.0 × 10^6 cells/mL in DMEM (Gibco) supplemented with 2 mM L-glutamine (Gibco), 10% heat-inactivated fetal bovine serum (BioClot, Passau, Germany), 100 U/mL penicillin and […] streptomycin (Gibco) and plated 200 μL/well in 96-well transparent plates (SPL Life Sciences Co., Ltd., Pochon, Korea). After 2 h at 37 °C in a humidified atmosphere with 5% CO2, wells were washed to remove nonadherent cells. After 24 h of incubation, 20 μL of the supernatants were substituted with 20 μL of solutions of the test compounds, followed with E. coli O127:B8 LPS (100 ng/mL final concentration) after 30 min. Experiments were run in 3 independent replicates.
(§2) The activity of lactate dehydrogenase (LDH) in a cell culture medium served as a marker of membrane permeability and cell death. Aliquots of supernatants were taken after 24 h of inoculation with test compounds, mixed with 250 μL of […] NADH solution in 54 mM phosphate-buffered saline (pH 7.5). Then, 25 μL of a 6.48 mM pyruvate solution was added to the mixture. The optical density was followed at a wavelength of 340 nm for 20 min. The MTT test was performed 24 h after the incubation of cells with the tested compounds. Briefly, 20 μL of MTT solution was added to each well and incubated at 37 °C in a humidified atmosphere containing 5% CO2 for 4 h. The culture medium was aspirated, the cells were lysed and formazan crystals dissolved in 150 μL of DMSO. The plates were shaken at room temperature for 10 min, and the optical density was measured in a microplate reader Infinite M200 PRO (Tecan Group Ltd., Männedorf, Switzerland) at a wavelength of 565 nm.

[2] = MTT cytotoxicity on peritoneal macrophages; assay type: cell-based, mice; settings: male, C57bl/6j, mouse; 24 h incubation; read-out: MTT CC50 ± SE
Description: as §1, §2

E. coli MG1655 pXen7 = assay: Constitutive lux-biosensor, general toxicity; assay type: cell-based, Escherichia coli; settings: compound at 1 mM; decrease ascribed to shielding of bioluminescence
Description: Importantly, all the studied compounds are poorly soluble in water and can form a suspension at 1 mM; moreover, compound 4a at concentrations above 100 μM presents a substance of dark color and is capable of the partial shielding of bioluminescence.
pColD-lux―PcolD is induced by the SOS response; pDps―Pdps is activated in the presence of DNA-oxidizing agents; pSoxS-lux―PSoxS is induced in the presence of superoxide anion radicals; pOxyR-lux―PoxyR is induced in response to the appearance of hydrogen peroxide or organic peroxides; pAlkA-lux―PalkA is induced in response to DNA alkylation. pXen7 contains P. luminescens ZM1 lux genes controlled by its own promoter, which was used as a constitutive.
The bioluminescence of cells was measured using a Synergy HT luminometer (Biotek, Winooski, VT, USA) at room temperature. Lux biosensors based on E. coli were grown to an early logarithmic phase (OD ≈ 0.1) to achieve a background luminescence approximately 100–1000 RLU at the beginning of the measurements. Lux biosensors based on B. subtilis were grown to a logarithmic phase with an optical density OD ≈ 0.6 (and background luminescence of about 10–500 RLU). Biosensor cell cultures were divided into portions of 200 μL in a 96-well plate. […] The kinetics of change in luminescence was measured at room temperature.

[3] = system: human fibroblast cells (MRC-5); assay: MTT test with human fibroblast cells; assay type: cell-based; settings: MRC5, 72 h, read-out: EC50 ± SEM, MRC-5
Description: The studied compounds were added in concentrations of 1, 3, 6, 12, 25, 50, and 100 μM.
Human fibroblast cells (MRC-5) were used in this study. The cells were cultured in the DMEM medium that contained 10% embryonic calf serum in a CO2 incubator at 37 °C. The tested compounds were dissolved in DMSO and added to the cellular culture at the required concentrations. Three wells were used for each concentration. The cells that were incubated without the compounds were used as a negative control, and doxorubicin was used as the positive one. Cells were placed on 96-well microliter plates and cultivated at 37 °C in 5% CO2/95% air for 72 h. The cell viability was assessed through an MTT (3-(4,5-dimethylthiazol-2-yl)-2,5-phenyl-2H-tetrazolium bromide) conversion assay. A total of 1% MTT was added to each well. Three hours later, isopropanol was added and mixed for 15 min. Optical density (OD) of the samples was measured on a ThermoFischer multi-well spectrophotometer at a wavelength of 450 nm. […] The experimental results are given as average values obtained from three independently conducted experiments.

[4] = LDH release cytotoxicity on peritoneal macrophages; assay type: cell-based, mice; settings: male, C57bl/6j, mouse; 24 h incubation; read-out: LDH CC50 ± SE
Description: as §1
as §2, with “Briefly, 20 μL of MTT solution was added to each well and incubated at 37 °C in a humidified atmosphere containing 5% CO2 for 4 h. The culture medium was aspirated, the cells were lysed and formazan crystals dissolved in 150 μL of DMSO.” left out

[Se]=C(Nc1ccccc1)NC12CC3CC(CC(C3)C1)C2 [4a, 1-(Adamantan-1-yl)-3-phenylselenourea]
genotoxic activity (in words) (E. coli PQ37; SOS chromotest / lux-biosensors): does not exhibit genotoxic properties | I(c) ± SE, 10 µM (E. coli PQ37; induction factor, compound 10 µM): 1.03 ± 0.13 | I(c) ± SE, 25 µM (E. coli PQ37; induction factor, compound 25 µM): 1.09 ± 0.14 | I(c) ± SE, 50 µM (E. coli PQ37; induction factor, compound 50 µM): 1 ± 0.15 | I(c) ± SE, 100 µM (E. coli PQ37; induction factor, compound 100 µM): 1.08 ± 0.09 | EC50 [1]: 7.5 ± 1.9 µM | CC50 at 24 h [2]: 7.5 ± 1.9 µM | luminescence decrease coefficient of the pXen7 biosensor (E. coli MG1655 pXen7): 0.29 ± 0.08 | EC50 [3]: 3.38 ± 0.49 µM | CC50 at 24 h [4]: 29.4 ± 8.5 µM
